Reference: PMC3006138, “Fexinidazole – A New Oral Nitroimidazole Drug Candidate Entering Clinical Development for the Treatment of Sleeping Sickness” (PLoS Neglected Tropical Diseases, 2010)
Read-outs that look alike come from different tables or passages of the source.

Legend:
[1] = One-electron reduction potential by pulse radiolysis; format: physicochemical
Protocol: One-electron reduction potentials were determined by pulse radiolysis following an established procedure.

[2] = tested on: hepatocytes from African American donors; test: Hepatocyte intrinsic clearance and metabolite profile; format: in vitro ADME, human; conditions: fexinidazole 10 µM
Protocol: Fexinidazole was incubated with cryopreserved hepatocytes from male CD-1 mice, male Sprague Dawley rats, male beagle dogs, male cynomolgus monkeys, and from pooled white or African-American human donor samples (purchased commercially), at concentrations of 1 µM and 10 µM. […] The incubated samples were analyzed by LC-MS after extraction into acetonitrile.
Fexinidazole sulfoxide, lot 1106-I-0170, 99.3% purity, and fexinidazole sulfone, lot 1106-I-0171, 99.9% purity, were provided by the Sponsor.
Cryopreserved hepatocytes of five single donors, lots EHI, REL, KSE […]
ZIJ and MRS, were purchased from In Vitro Technologies Inc (Baltimore, Maryland, USA).
The certificates of analysis are reported in Appendix 1.
Reagents and solvents were of analytical grade and obtained from Sigma-Aldrich (St. Louis, […]
7.5. In Vitro Incubations
On the day of the experiment a 10 mM stock solution of fexinidazole in DMSO was prepared and, within 3 hours, aliquots of this freshly prepared solution, after suitable dilution, were added to the incubation matrix, to reach fexinidazole final concentrations of 1 and 10 µM. The final percentage of DMSO was 0.01% in the incubation samples for the […]
The cryopreserved hepatocytes were thawed according to the supplier’s procedure and the number of viable cells was determined using the Trypan Blue exclusion method. Viabilities were 92% for lot EHI, 89% for lot REL, 82% for lot KSE, 86% for lot ZIJ and 86% for lot MRS in the intrinsic clearance study. In the metabolite profile study viabilities were 91% for lot EHI, 90% for lot REL, 85% for lot KSE, 84% for lot ZIJ and 87% for lot MRS.
Afterwards, the same amount of viable cells for each donor were pooled and used for the incubations of fexinidazole.
7.5.1. Intrinsic Clearance Study […]
µM with pooled human hepatocytes (1 million cells/mL) in a final incubation volume of 1 mL Leibovitz L-15 medium, at 37°C. Incubations were performed in duplicate in a 48-well plate under shaking. Sampling was performed using an automatic liquid handling system (Multiprobe II EX, Packard). At 0, 1, 5, 10, 15, 20, 30, 60 and 120 minutes, 50 µL aliquots of the incubates were taken, then 80 µL of ice-cold acetonitrile and 20 µL of 1 µM warfarin in acetonitrile (internal standard) were added, and samples centrifuged at 2000 rpm for 20 min. The supernatant was analyzed by LC-MS/MS. […]
The chemical stability of fexinidazole was checked by incubating the compound at 37°C in the medium alone at t = 0 and 120 minutes.
For the determination of phase I and phase II activities of hepatocytes, 7-ethoxycoumarin (7-ETC) 1 µM, and 7-hydroxycoumarin (7-HC) 30 µM were used as positive controls and incubated under the same conditions as fexinidazole. Aliquots of incubates were taken at 0, 1, 5, 10, 15, 20, 30, 60 and 120 minutes and processed as fexinidazole samples.
7.5.2. Metabolite Profile Study
For metabolite profiling, fexinidazole was incubated at a concentration of 10 µM with pooled human hepatocytes (1 million cells/mL) in a final incubation volume of 2 mL Leibovitz L-15 medium, at 37°C. Aliquots of the incubation samples were taken at t = 0, 30 and 120 minutes; the metabolism was stopped by the addition of an equal volume of cold acetonitrile and the samples centrifuged at 1100 rpm for 20 min. The supernatant was stored at -20°C until analysis. Control incubations were performed with the compound in the medium alone for 120 minutes.
7.6. Analysis of the Samples of Intrinsic Clearance Study
The analysis of the samples for intrinsic clearance determination was performed by an LC-MS/MS method, using the following conditions:
HPLC Equipment and Conditions
HPLC system 1100 binary pump (Agilent, Palo Alto, USA)
Autosampler 2777 (Waters)
Analytical column Guard Column SB-C8 4.6 x 12.5 mm, 5 µm (Zorbax)
Column temperature ambient
Mobile phase A 10 mM ammonium formate pH 4.0: acetonitrile (95:5, v:v)
Mobile phase B 10 mM ammonium formate pH 4.0: acetonitrile (5:95, v:v) […]
Gradient conditions Step Total time (min) flow (µL/min) %A % B […]

[3] = Rat single-dose IV and oral pharmacokinetics; format: in vivo; conditions: for AUC(0-t): read-out: AUC0-t(last); for half-life: read-out: t1/2,z (converted)
Protocol: METHODS […] Fexinidazole was given as IV and oral administrations to male Sprague Dawley rats according to the following scheme Rat ID Route Dose (mg/kg) Formulation […] IV dose was administered via the tail vein, the oral dose was administered by gastric gavage. 4.2. […] On the day of dosing, approximately 0.3 mL of blood/sampling time were taken from the cannula using heparinized syringes, transferred immediately into tubes (pre-cooled in an ice/water bath) and centrifuged at […] The separated plasma was split into two aliquots, then stored at -80°C until analysis. […] 4.3. Bioanalytical Method Plasma concentrations of Fexinidazole were determined by a LC-MS-MS method. The lower limit of the bioanalytical method was 5.12 ng/mL. […] Details of the bioanalytical method were reported in Appendix 2 and the analytical performance was reported in Appendix 3. 4.4. […] For the calculations, pre-dose concentrations were set equal to C0.033 and equal to zero after IV and oral administrations, respectively. […] regression line. […] Absolute bioavailability was calculated from the ratio of the average oral to IV dose- normalized AUC0-∞ values. […] Plasma concentrations and pharmacokinetic parameters of Fexinidazole were reported to three significant figures. 5. RESULTS Mean ±SD systemic exposure parameters of Fexinidazole after IV and oral administrations of the compound are reported in Table 1. […] This side […] After oral administration, detectable concentrations of Fexinidazole were measured at the […] Mean ±SD maximal plasma concentration of Fexinidazole was 147 ±37 ng/mL, achieved 2 h post dosing. The concentrations of the compound were detectable up to the end of the experiment (8 h). […] Mean ±SD AUC0-∞ was 662 ±106 ng⋅h/mL. […] 6. CONCLUSIONS After both doses, low variability of the pharmacokinetic parameters of Fexinidazole was observed. […] Report Amendment for Study 0327-2007 2. […] METHODS […] The lower limit of the bioanalytical method was 5.00 ng/mL for both compounds. […] Details of the bioanalytical method are reported in Table 1 and the analytical performances of calibration standards are reported in Tables 2-5. 3.2.

[4] = Sprague Dawley, plasma, fexinidazole 5 mg/kg IV, male SD rats, read-out: Cmax (C0.033 for parent)
[5] = male, Sprague Dawley, plasma, fexinidazole 5 mg/kg IV
[6] = male, Sprague Dawley, plasma, fexinidazole 10 mg/kg oral
[7] = male, Sprague Dawley, plasma, fexinidazole 10 mg/kg oral, read-out: Cmax

Row | SMILES | single electron redox potential [1] | % of total drug related material ([2]; 30 min) | % of total drug related material ([2]; t=0) | Cmax [3, 4] | clearance ([3]; male, Sprague Dawley, plasma, 5 mg/kg IV) | Vd ([3]; male, Sprague Dawley, plasma, 5 mg/kg IV, read-out: Vss) | AUC(0-t) [3, 5] | half-life [3, 5] | Tmax [3, 6] | AUC(0-t) [3, 6] | Cmax [3, 7] | half-life [3, 6] | AUC(0-inf) ([3]; male, Sprague Dawley, plasma, iv, 5 mg/kg, fexinidazole 5 mg/kg IV, read-out: AUC0-∞) | bioavailability ([3]; male, Sprague Dawley, plasma, oral, 10 mg/kg, oral 10 mg/kg vs IV 5 mg/kg, read-out: Absolute bioavailability F) | AUC(0-inf) ([3]; male, Sprague Dawley, plasma, po, 10 mg/kg, fexinidazole 10 mg/kg oral, read-out: AUC0-∞) | AUC(0-inf) ([3]; male, Sprague Dawley, plasma, po, 10 mg/kg, oral, normalized to 1 mg/kg, read-out: AUC0-∞, norm) | Absolute bioavailability F ([3]; oral 10 mg/kg vs IV 5 mg/kg) | % of total drug related material ([2]; 120 min) | Tmax [3, 5]
1 | CSc1ccc(OCc2ncc([N+](=O)[O-])n2C)cc1 [Fexinidazole, 1-methyl-2-((p-(methylthio)phenoxy)methyl)-5-nitroimidazole] | −511 mV | 1% | 77% | 3.66 ± 0.217 µg/mL | 4.57 L/h/kg | 4.69 L/kg | 1.16 µg·h/mL | 1.71 h | 2 h | 0.631 µg·h/mL | 0.147 ± 0.0366 µg/mL | 1.72 h | 1.2 ± 0.0265 µg·h/mL | 30% | 0.662 ± 0.106 µg·h/mL | 0.0651 µg·h/mL | 29.7% | – | –
2 | Cn1c([N+](=O)[O-])cnc1COc1ccc(S(C)(=O)=O)cc1 [Fexinidazole sulfone] | −488 mV | – | – | 2.09 µg/mL | – | – | 9.59 µg·h/mL | – | 6 h | 14.3 µg·h/mL | 2.66 µg/mL | – | – | – | – | – | – | 1% | 5.33 h
3 | Cn1c([N+](=O)[O-])cnc1COc1ccc([S+](C)[O-])cc1 (centres unmarked) [Fexinidazole sulfoxide] | −493 mV | 98% | 23% | 3.07 µg/mL | – | – | 9.44 µg·h/mL | – | 2 h | 16.2 µg·h/mL | 3.52 µg/mL | – | – | – | – | – | – | 98% | 1 h
